Experimental data published in article PMC11412489, “Coumarin derivatives as new anti-biofilm agents against Staphylococcus aureus” (PLOS ONE, 2024).
Like-named read-outs stand apart in the source and are kept apart here.

Legend:
Type in all cases: cell-based, Staphylococcus aureus
S. aureus = assay: Antibacterial activity (bacterial growth inhibition); conditions: at 100 μg/mL; for inhibition at 100 µg/mL: Staphylococcus aureus, read-out: Antibacterial Activity (% Inhibition ± SEM)
[1] = test system: biofilm of S. aureus ATCC 6538; assay: 96-well plate crystal violet assay for biofilm inhibition; conditions: for inhibition at 3.125 µg/mL / inhibition at 6.25 µg/mL / inhibition at 12.5 µg/mL / inhibition at 25 µg/mL / inhibition at 50 µg/mL / inhibition at 100 µg/mL: Staphylococcus aureus, ATCC6538
Method: The quantitative determination of biofilm inhibition was carried out by the crystal violet assay on a sterile 96-well plate with slight modifications. The glycerol stock of S. aureus was revived overnight at 37°C at 80 rpm. The overnight culture was then diluted 100 folds in fresh BHI broth, supplemented with 0.25% glucose. The cell density was adjusted to 1×10^7 and 195μL of the cell suspension was added in 96-well plate. […] Following that, the plate was washed with sterile distilled water in order to decant the non-adherent cells, and media. The plate was then dried at 60°C for 1 hour, and 200 μL of 0.1% (w/v) crystal violet was added to stain biofilm for 20 minutes. The plate was washed again, air dried, and dispensed 30% (v/v) acetic acid in each well to dissolve the biofilm. The inhibition of biofilm formation was analyzed by measuring the absorbance at 595 nm using the microplate reader (Multiskan Sky, Thermo Scientific, USA). The percent inhibition of biofilm formation was calculated via the following formula: 100−ƛTreated−ƛBlank/ƛControl−ƛBlank×100 Whereƛ=absorbance

S. aureus biofilm = assay: Atomic force microscopy analysis of biofilm disruption; conditions: compared to control S. aureus cells, 24 hours
Method: The size and structure of disrupted biofilm was analyzed. Briefly, a pure single colony of S. aureus was inoculated in BHI broth and grown for 18–24 hours at 37°C. Following incubation, the cells were diluted in BHI broth, and density was adjusted to 1×10^7 before loading on a sterile silicon chip placed in 24-well plate, then silicon chips were treated with active compounds. The plate was then sealed, and placed in an incubator for 24 hours at 37°C. After incubation, the treated silicon chips were washed with autoclaved distilled water thrice, air dried, and the samples were analyzed by atomic force microscope (Agilent Technologies, USA).

[2] = test system: biofilm cells of the S. aureus strain (ATCC 6538); assay: Biofilm analysis by fluorescence microscopy (SYTO-9/PI); conditions: SYTO-9/PI staining, S. aureus ATCC 6538, 24 hours
Method: Briefly, 1×10^7 cells were loaded in 96-well plate, and treated with active compounds. Plate was sealed, and incubated for 24 hours at 37°C. Following incubation, plate was washed with sterile distilled water, and cells were stained with […] SYTO-9 and 5 μM PI, for 30 minutes in dark at room temperature. After incubation, the wells were washed again, and air dried. Images were taken, and then visualized by Nikon Eclipse TE2000, USA [23]. Propidium Iodide (PI) staining indicates membrane integrity, as it can only pass through compromised membranes of non-viable cells, giving red fluorescence. On the contrary, Syto-9 can pass through all cells despite of their membrane integrity, and binds to DNA/RNA by emitting green fluorescence.

[3] = S. aureus ATCC 6538, replicate 1, read-out: % Inhibition 1
[4] = S. aureus ATCC 6538, replicate 2, read-out: % Inhibition 2
[5] = S. aureus ATCC 6538, replicate 3, read-out: % Inhibition 3
[6] = S. aureus ATCC 6538, read-out: Mean % Inhibition
[7] = 100 µg/mL, S. aureus ATCC 6538, replicate 1, read-out: % Inhibition 1
[8] = 100 µg/mL, S. aureus ATCC 6538, replicate 2, read-out: % Inhibition 2
[9] = 100 µg/mL, S. aureus ATCC 6538, replicate 3, read-out: % Inhibition 3
[10] = 100 µg/mL, S. aureus ATCC 6538, read-out: Mean % Inhibition
[11] = at 100 μg/mL, biofilm of S. aureus, 24 hours, read-out: Antibiofilm Activity (% Inhibition ± SEM)
[12] = at 100 μg/mL, biofilm of S. aureus, 24 hours

SMILES: Cc1ccc2oc(=O)c(/C=N/Nc3nc(-c4cccc([N+](=O)[O-])c4)cs3)c(Cl)c2c1 [Compound 2, (E)-4-Chloro-6-methyl-3-((2-(4-(3-nitrophenyl)thiazol-2-yl)hydrazono)methyl)-2H-chromen-2-one]
- inhibition at 100 µg/mL (S. aureus): 15 ± 4.53%
- Antibacterial Activity (% Inhibition ± SEM) (S. aureus): low antibacterial effect
- inhibition at 3.125 µg/mL [1, 3]: 4.05%
- inhibition at 3.125 µg/mL [1, 4]: 3.79%
- inhibition at 3.125 µg/mL [1, 5]: 4.17%
- inhibition at 3.125 µg/mL [1, 6]: 4%
- inhibition at 6.25 µg/mL [1, 3]: 3.29%
- inhibition at 6.25 µg/mL [1, 4]: 3.99%
- inhibition at 6.25 µg/mL [1, 5]: 3.49%
- inhibition at 6.25 µg/mL [1, 6]: 3.59%
- inhibition at 12.5 µg/mL [1, 3]: 1.73%
- inhibition at 12.5 µg/mL [1, 4]: 0.99%
- inhibition at 12.5 µg/mL [1, 5]: 2.54%
- inhibition at 12.5 µg/mL [1, 6]: 1.75%
- inhibition at 25 µg/mL [1, 3]: 1.79%
- inhibition at 25 µg/mL [1, 4]: 1.44%
- inhibition at 25 µg/mL [1, 5]: 1.99%
- inhibition at 25 µg/mL [1, 6]: 1.74%
- inhibition at 50 µg/mL [1, 3]: 27%
- inhibition at 50 µg/mL [1, 4]: 29.2%
- inhibition at 50 µg/mL [1, 5]: 28.5%
- inhibition at 50 µg/mL [1, 6]: 28.3%
- inhibition at 100 µg/mL [1, 7]: 95%
- inhibition at 100 µg/mL [1, 8]: 93.9%
- inhibition at 100 µg/mL [1, 9]: 93.6%
- inhibition at 100 µg/mL [1, 10]: 94.2%
- inhibition at 100 µg/mL [1, 11]: 90 ± 3.24%
- Antibiofilm Activity (% Inhibition ± SEM) [1, 12]: high potential to inhibit the biofilms
- Biofilm disruption seen by AFM (S. aureus biofilm): disrupt and degrade biofilm to varying degrees
- Biofilm disruption seen by fluorescence microscopy [2]: Disruption on the surface of biofilm

SMILES: Cc1ccc2oc(=O)c(/C=N/Nc3nc(-c4ccc(C#N)cc4)cs3)c(Cl)c2c1 [Compound 3, (E)-4-(2-(2-((4-Chloro-6-methyl-2-oxo-2H-chromen-3-yl)methylene)hydrazinyl)thiazol-4-yl)benzonitrile]
- inhibition at 100 µg/mL (S. aureus): 27 ± 6.41%
- Antibacterial Activity (% Inhibition ± SEM) (S. aureus): low antibacterial effect
- inhibition at 3.125 µg/mL [1, 3]: 12.7%
- inhibition at 3.125 µg/mL [1, 4]: 11.7%
- inhibition at 3.125 µg/mL [1, 5]: 13.9%
- inhibition at 3.125 µg/mL [1, 6]: 12.8%
- inhibition at 6.25 µg/mL [1, 3]: 22.7%
- inhibition at 6.25 µg/mL [1, 4]: 21.1%
- inhibition at 6.25 µg/mL [1, 5]: 22.5%
- inhibition at 6.25 µg/mL [1, 6]: 22.1%
- inhibition at 12.5 µg/mL [1, 3]: 26.9%
- inhibition at 12.5 µg/mL [1, 4]: 29.2%
- inhibition at 12.5 µg/mL [1, 5]: 27.4%
- inhibition at 12.5 µg/mL [1, 6]: 27.8%
- inhibition at 25 µg/mL [1, 3]: 55.9%
- inhibition at 25 µg/mL [1, 4]: 57.8%
- inhibition at 25 µg/mL [1, 5]: 56.6%
- inhibition at 25 µg/mL [1, 6]: 56.8%
- inhibition at 50 µg/mL [1, 3]: 74%
- inhibition at 50 µg/mL [1, 4]: 76%
- inhibition at 50 µg/mL [1, 5]: 77%
- inhibition at 50 µg/mL [1, 6]: 75.6%
- inhibition at 100 µg/mL [1, 7]: 93.2%
- inhibition at 100 µg/mL [1, 8]: 90.2%
- inhibition at 100 µg/mL [1, 9]: 93.1%
- inhibition at 100 µg/mL [1, 10]: 92.2%
- inhibition at 100 µg/mL [1, 11]: 91 ± 6.31%
- Antibiofilm Activity (% Inhibition ± SEM) [1, 12]: high potential to inhibit the biofilms
- Biofilm disruption seen by AFM (S. aureus biofilm): disrupt and degrade biofilm to varying degrees
- Biofilm disruption seen by fluorescence microscopy [2]: mild to extensive biofilm disruption and degradation

SMILES: Cc1ccc2oc(=O)c(/C=N/Nc3nc(-c4ccc([N+](=O)[O-])cc4)cs3)c(Cl)c2c1 [Compound 4, (E)-4-Chloro-6-methyl-3-((2-(4-(4-nitrophenyl)thiazol-2-yl)hydrazono)methyl)-2H-chromen-2-one]
- inhibition at 100 µg/mL (S. aureus): 21 ± 4.51%
- Antibacterial Activity (% Inhibition ± SEM) (S. aureus): low antibacterial effect
- inhibition at 3.125 µg/mL [1, 3]: 2.92%
- inhibition at 3.125 µg/mL [1, 4]: 1.79%
- inhibition at 3.125 µg/mL [1, 5]: 3.04%
- inhibition at 3.125 µg/mL [1, 6]: 2.58%
- inhibition at 6.25 µg/mL [1, 3]: 7.04%
- inhibition at 6.25 µg/mL [1, 4]: 8.05%
- inhibition at 6.25 µg/mL [1, 5]: 9.02%
- inhibition at 6.25 µg/mL [1, 6]: 8.04%
- inhibition at 12.5 µg/mL [1, 3]: 6.69%
- inhibition at 12.5 µg/mL [1, 4]: 5.79%
- inhibition at 12.5 µg/mL [1, 5]: 5.68%
- inhibition at 12.5 µg/mL [1, 6]: 6.05%
- inhibition at 25 µg/mL [1, 3]: 29.1%
- inhibition at 25 µg/mL [1, 4]: 30.1%
- inhibition at 25 µg/mL [1, 5]: 28.1%
- inhibition at 25 µg/mL [1, 6]: 29.1%
- inhibition at 50 µg/mL [1, 3]: 66%
- inhibition at 50 µg/mL [1, 4]: 67%
- inhibition at 50 µg/mL [1, 5]: 66.1%
- inhibition at 50 µg/mL [1, 6]: 66.4%
- inhibition at 100 µg/mL [1, 7]: 86.8%
- inhibition at 100 µg/mL [1, 8]: 84.3%
- inhibition at 100 µg/mL [1, 9]: 86.6%
- inhibition at 100 µg/mL [1, 10]: 85.9%
- inhibition at 100 µg/mL [1, 11]: 90 ± 9.3%
- Antibiofilm Activity (% Inhibition ± SEM) [1, 12]: high potential to inhibit the biofilms
- Biofilm disruption seen by AFM (S. aureus biofilm): disrupt and degrade biofilm to varying degrees
- Biofilm disruption seen by fluorescence microscopy [2]: mild to extensive biofilm disruption and degradation
